Test results published in US20140286904A1, “ANITMICROBIAL PEPTIDE PRODUCED BY INTESTINAL LACTOBACILLUS SALIVARIUS” (AGRICULTURE AND FOOD DEVELOPMENT AUTHORITY (TEAGASC), priority 2011, published 2014).
≈ marks a conversion by molar mass, not a printed value. Positions of bridges follow the written chain, without caps; N, C: chain ends. Residues, ends and D or L forms follow the SMILES beside them. No end group written: not given here.

Experiments:
[1] = system: S. aureus DPC5246; conditions: BHI broth, 37° C., 24 h, OD590
[2] = system: L. monocytogenes NCTC 11994; conditions: BHI broth, 37° C., 24 h, OD590
[3] = system: E. coli strains; conditions: broth-based MIC50 assay
[4] = system: E. sakazakii strains
[5] = system: L. delbrueckii subsp. bulgaricus; assay: antimicrobial activity of purified peptide (well diffusion, FIG. 1); type: cell-based, Lactobacillus delbrueckii subsp. bulgaricus
Experimental: (§1) The antimicrobial peptide was purified from a 0.5 L overnight culture of L. salivarius DPC6502 grown in MRS-IM-G media. The cells were removed by centrifugation at 8,000×g for 15 min, and the supernatant applied to a column containing 10 ml SP sepharose Fast flow cation-exchange resin (GE Healthcare, UK) previously equilibrated with 50 mM sodium acetate buffer, pH 4.5. The column was washed with 50 mM sodium acetate buffer, pH 4.5 containing 0.3 M NaCl, the bioactive peptide was subsequently eluted from the column using 50 mM sodium acetate buffer, pH 4.5 containing 1.0 M NaCl. The eluate was applied to a 2.0 g (12 ml volume) C18 Bond Elute column (Phenomenex, Cheshire, UK) pre-equilibrated with methanol and water. […] The column was pre-equilibrated with 10% acetonitrile containing 0.1% (vol/vol) TFA, followed by separation and elution of the bioactive peptide by gradient RP-HPLC using 0.1% (vol/vol) TFA and acetonitrile concentrations that ranged from 10% to 30% (vol/vol), from 5 to 45 min at a flow rate of 1.0 ml min^−1 Absorbance was monitored at a wavelength of 214 nm. Antimicrobial peptide activity was monitored throughout the purification procedure by well diffusion assay using the sensitive indicator strain L. delbrueckii subsp. bulgaricus LMG6901. […]

[6] = system: Listeria; assay: antimicrobial activity of purified peptide (FIG. 1); type: cell-based
Experimental: as §1

[7] = system: Staphylococcus aureus; assay: as above; type: cell-based
[8] = system: L. salivarius UCC118; assay: inhibition of strains closely related to the producer; type: cell-based, Lactobacillus salivarius
[9] = system: bovine mastitis isolate S. aureus DPC5245; conditions: cited from earlier work

Molecule: CSCC[C@H](NC(=O)CNC(=O)[C@@H](NC(=O)[C@@H]1CCCN1C(=O)[C@H](CCSC)NC(=O)CNC(=O)[C@H](CC(N)=O)NC(=O)[C@H](CC(N)=O)NC(=O)[C@H](Cc1ccc(O)cc1)NC(=O)[C@@H](NC(=O)[C@H](CCCNC(=N)N)NC(=O)[C@H](CS)NC(=O)[C@H](CCCNC(=N)N)NC(=O)[C@H](Cc1c[nH]cn1)NC(=O)[C@H](CCCCN)NC(=O)[C@H](CCCCN)NC(=O)[C@H](CCCNC(=N)N)NC(=O)[C@@H](N)CCCCN)C(C)C)[C@@H](C)O)C(=O)N[C@@H](Cc1ccc(O)cc1)C(=O)N[C@@H](CCCNC(=N)N)C(=O)N[C@@H](Cc1c[nH]c2ccccc12)C(=O)N[C@@H](CS)C(=O)O [synthetic Bactofensin LS1] (H-KRKKHRCRVYNNGMPTGMYRWC-OH; N-terminus assumed)
- MIC50 (concentration sufficient to inhibit growth by 50%) [1]: 5 µM (≈ 13.9 µg/mL)
- MIC50 (concentration sufficient to inhibit growth by 50%) [2]: 5 µM (≈ 13.9 µg/mL)
- concentration that did not inhibit (MIC50 assay) [3]: > 50 µM
- concentration that did not inhibit (MIC50 assay) [4]: > 50 µM

Molecule: Bactofensin LS1: 22 aa cationic class II antimicrobial peptide of SEQ ID NO: 2 purified from L. salivarius DPC6502 (KRKKHRCRVYNNGMPTGMYRWC; disulfide 7-22; listed as Lactobacillus salivarius)
- antimicrobial activity [5]: active
- antimicrobial activity [6]: active
- antimicrobial activity [7]: active
- inhibition of closely related strains [8]: inhibits

Molecule: lacticin 3147
- MIC50 [9]: 7 to 8 µM
